According to US20230148214A1, “INDAZOLES AND AZAINDAZOLES AS LRRK2 INHIBITORS” (ESCAPE Bio, Inc., priority 2020, published 2023):

Legend:
[1] = target: T1, LRRK2 G2019S (Homo sapiens, UniProt Q5S007, G2019S); assay: LRRK2 Kinase Activity Assay (LanthaScreen TR-FRET), G2019S; format: biochemical; conditions: recombinant G2019S-LRRK2, 25 μM ATP, 400 nM LRRKtide, 60 min; class symbols
T1 construct: purchased Life Technologies PV4881
Description: (§1) LRRK2 kinase activity was measured using a LanthaScreen™ Kinase Activity Assay from ThermoFisher Scientific. Recombinant wild type or G2019S-LRRK2 protein (Life Technologies, PR8604B or PV4881, respectively), was incubated with a fluorescein-labeled peptide substrate called LRRKtide that is based upon ezrin/radixin/moesin (ERM) (Life Technologies, PV4901) in the presence of ATP and serially diluted compound. […] Compound-dependent inhibition of the TR-FRET signal was used to generate a concentration-response curve for IC50 determination.
(§2) After 60 min incubation at room temperature, the reaction was stopped by addition of 10 μL of 2×stop solution containing a final concentration of 2 nM anti-pERM antibody and 10 mM EDTA.

[2] = target: T2, LRRK2 WT (Homo sapiens, UniProt Q5S007); assay: LRRK2 Kinase Activity Assay (LanthaScreen TR-FRET), wild type; format: biochemical; conditions: recombinant wild type LRRK2, 25 μM ATP, 400 nM LRRKtide, 60 min; class symbols
T2 construct: purchased Life Technologies PR8604B
Description: as §1, §2

T2 sequence (Q5S007 whole entry): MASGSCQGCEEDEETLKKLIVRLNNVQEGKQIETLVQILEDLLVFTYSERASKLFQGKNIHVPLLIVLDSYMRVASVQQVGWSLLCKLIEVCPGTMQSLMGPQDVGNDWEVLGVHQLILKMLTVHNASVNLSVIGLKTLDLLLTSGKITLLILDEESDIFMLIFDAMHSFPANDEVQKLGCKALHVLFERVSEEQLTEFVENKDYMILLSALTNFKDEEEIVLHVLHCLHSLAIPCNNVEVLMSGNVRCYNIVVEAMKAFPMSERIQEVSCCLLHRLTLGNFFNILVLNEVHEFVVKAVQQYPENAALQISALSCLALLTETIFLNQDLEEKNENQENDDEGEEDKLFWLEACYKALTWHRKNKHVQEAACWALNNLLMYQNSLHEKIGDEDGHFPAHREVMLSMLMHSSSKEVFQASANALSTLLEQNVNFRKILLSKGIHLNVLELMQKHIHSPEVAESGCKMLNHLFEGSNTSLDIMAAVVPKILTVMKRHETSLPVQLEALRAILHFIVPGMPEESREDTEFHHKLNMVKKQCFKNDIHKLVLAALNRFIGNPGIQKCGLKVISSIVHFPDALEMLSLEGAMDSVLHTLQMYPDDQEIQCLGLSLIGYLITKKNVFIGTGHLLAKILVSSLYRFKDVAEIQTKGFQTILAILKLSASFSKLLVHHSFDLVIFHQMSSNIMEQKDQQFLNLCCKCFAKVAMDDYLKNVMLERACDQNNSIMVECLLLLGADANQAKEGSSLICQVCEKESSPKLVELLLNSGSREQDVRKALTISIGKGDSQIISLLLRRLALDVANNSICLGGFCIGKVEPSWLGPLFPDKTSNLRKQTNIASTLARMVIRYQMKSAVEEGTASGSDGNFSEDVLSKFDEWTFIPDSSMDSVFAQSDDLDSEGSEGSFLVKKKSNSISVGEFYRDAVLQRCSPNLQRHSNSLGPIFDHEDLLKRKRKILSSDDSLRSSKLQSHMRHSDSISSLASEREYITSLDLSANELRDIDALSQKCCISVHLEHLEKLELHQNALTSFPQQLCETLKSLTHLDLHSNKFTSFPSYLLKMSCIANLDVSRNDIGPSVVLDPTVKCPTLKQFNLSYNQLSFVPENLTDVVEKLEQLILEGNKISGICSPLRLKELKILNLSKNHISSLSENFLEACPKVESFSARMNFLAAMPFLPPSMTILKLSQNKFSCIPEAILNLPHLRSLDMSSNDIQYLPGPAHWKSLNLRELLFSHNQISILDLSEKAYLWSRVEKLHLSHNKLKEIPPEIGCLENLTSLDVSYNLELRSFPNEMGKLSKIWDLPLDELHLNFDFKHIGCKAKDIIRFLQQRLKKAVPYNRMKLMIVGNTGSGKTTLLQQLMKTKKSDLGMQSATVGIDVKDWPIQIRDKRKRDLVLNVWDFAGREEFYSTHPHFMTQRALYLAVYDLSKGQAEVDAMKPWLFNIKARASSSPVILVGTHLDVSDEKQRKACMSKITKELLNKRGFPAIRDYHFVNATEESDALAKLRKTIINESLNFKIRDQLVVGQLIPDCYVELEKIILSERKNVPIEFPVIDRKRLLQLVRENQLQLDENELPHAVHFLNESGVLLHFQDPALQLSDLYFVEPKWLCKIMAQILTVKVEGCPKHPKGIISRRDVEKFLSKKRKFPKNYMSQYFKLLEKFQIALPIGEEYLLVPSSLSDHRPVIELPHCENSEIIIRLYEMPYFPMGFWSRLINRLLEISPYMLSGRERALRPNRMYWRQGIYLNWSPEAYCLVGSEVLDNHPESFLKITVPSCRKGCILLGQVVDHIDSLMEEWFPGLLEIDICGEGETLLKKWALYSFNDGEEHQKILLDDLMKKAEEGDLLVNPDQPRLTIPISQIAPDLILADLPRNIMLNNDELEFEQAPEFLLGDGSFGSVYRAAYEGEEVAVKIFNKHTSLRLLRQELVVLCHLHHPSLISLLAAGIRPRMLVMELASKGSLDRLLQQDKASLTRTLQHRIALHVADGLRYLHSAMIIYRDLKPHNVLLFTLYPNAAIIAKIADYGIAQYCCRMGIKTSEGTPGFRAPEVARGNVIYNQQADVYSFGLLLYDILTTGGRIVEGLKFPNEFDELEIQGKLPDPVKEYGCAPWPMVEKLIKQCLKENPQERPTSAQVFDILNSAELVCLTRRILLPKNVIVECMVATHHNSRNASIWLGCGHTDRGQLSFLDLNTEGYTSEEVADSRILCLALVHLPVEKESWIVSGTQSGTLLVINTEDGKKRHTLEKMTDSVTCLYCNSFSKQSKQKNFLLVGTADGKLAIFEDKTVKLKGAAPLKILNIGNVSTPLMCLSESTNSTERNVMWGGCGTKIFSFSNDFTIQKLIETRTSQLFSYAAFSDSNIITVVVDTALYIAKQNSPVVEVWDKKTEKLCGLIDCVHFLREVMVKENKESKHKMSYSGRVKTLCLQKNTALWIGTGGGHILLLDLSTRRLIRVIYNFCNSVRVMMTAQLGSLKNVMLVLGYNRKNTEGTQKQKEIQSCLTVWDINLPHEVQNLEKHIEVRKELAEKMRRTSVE
T1 sequence (Q5S007 whole entry G2019S): as the sequence (Q5S007 whole entry) above, with G2019S counted along it

IC50 [1] [nM]	IC50 [2] [nM]	SMILES
< 100	< 100	N#Cc1cc2c(nc1Cl)[C@@H](Oc1ccc3[nH]nc(-c4cnco4)c3c1)CCC2 (single isomer, unassigned) [177, enantiomer 1, 2-Chloro-8-((3-(oxazol-5-yl)-1H-indazol-5-yl)oxy)-5,6,7,8-tetrahydroquinoline-3-carbonitrile]
< 100	< 100	N#Cc1cc2c(nc1Cl)[C@@H](Oc1ccc3[nH]nc(-c4cnoc4)c3c1)CCC2 (single isomer, unassigned) [178, enantiomer 1, 2-Chloro-8-[[3-(1,2-oxazol-4-yl)-1H-indazol-5-yl]oxy]-5,6,7,8-tetrahydroquinoline-3-carbonitrile]
< 100	< 100	COc1nc2c(cc1C#N)CCC[C@@H]2Oc1ccc2[nH]nc(-c3cnco3)c2c1 (single isomer, unassigned) [179, enantiomer 1, 2-Methoxy-8-[[3-(1,3-oxazol-5-yl)-1H-indazol-5-yl]oxy]-5,6,7,8-tetrahydroquinoline-3-carbonitrile]
100 to 1000	100 to 1000	COc1nc2c(cc1C#N)CCC[C@@H]2Oc1ccc2[nH]nc(-c3cnco3)c2c1 (single isomer, unassigned) [179, enantiomer 2, 2-Methoxy-8-[[3-(1,3-oxazol-5-yl)-1H-indazol-5-yl]oxy]-5,6,7,8-tetrahydroquinoline-3-carbonitrile]
< 100	< 100	N#Cc1cc2c(cc1F)[C@@H](Oc1ccc3[nH]nc(-c4cnco4)c3c1)CCC2 (single isomer, unassigned) [180, enantiomer 1, 3-Fluoro-5-[[3-(1,3-oxazol-5-yl)-1H-indazol-5-yl]oxy]-5,6,7,8-tetrahydronaphthalene-2-carbonitrile]
	< 100	COc1c(C#N)cnc2c1CCC[C@@H]2Nc1ccc2[nH]nc(-c3cnco3)c2c1 (single isomer, unassigned) [Example 146, enantiomer 2, 4-Methoxy-8-((3-(oxazol-5-yl)-1H-indazol-5-yl)amino)-5,6,7,8-tetrahydroquinoline-3-carbonitrile]
	100 to 1000	COc1c(C#N)cnc2c1CC[C@@H]2Nc1ccc2[nH]nc(-c3cnco3)c2c1 (single isomer, unassigned) [Example 154, enantiomer 1, 4-Methoxy-7-((3-(oxazol-5-yl)-1H-indazol-5-yl)amino)-6,7-dihydro-5H-cyclopenta[b]pyridine-3-carbonitrile]
	< 100	N#Cc1cnc2c(n1)CCC[C@@H]2Oc1ccc2[nH]nc(-c3cnco3)c2c1 (single isomer, unassigned) [Example 163, enantiomer 2, 5-[[3-(1,3-Oxazol-5-yl)-1H-indazol-5-yl]oxy]-5,6,7,8-tetrahydroquinoxaline-2-carbonitrile]
	< 100	Cc1c(C#N)c(Cl)nc2c1CC[C@@H]2Oc1ccc2[nH]nc(-c3cnco3)c2c1 (single isomer, unassigned) [Example 166, enantiomer 2, 2-Chloro-4-methyl-7-[[3-(1,3-oxazol-5-yl)-1H-indazol-5-yl]oxy]-6,7-dihydro-5H-cyclopenta[b]pyridine-3-carbonitrile]
	< 100	N#Cc1c(F)cc2c(c1F)CC[C@@H]2Oc1ccc2[nH]nc(-c3cnco3)c2c1 (single isomer, unassigned) [Example 167, enantiomer 2, 4,6-Difluoro-1-[[3-(1,3-oxazol-5-yl)-1H-indazol-5-yl]oxy]-2,3-dihydro-1H-indene-5-carbonitrile]
	< 100	N#Cc1cc2c(nc1Cl)[C@@H](Oc1ccc3[nH]nc(-c4cnco4)c3c1)CC2 (single isomer, unassigned) [Example 171, enantiomer 2, 2-Chloro-7-[[3-(1,3-oxazol-5-yl)-1H-indazol-5-yl]oxy]-6,7-dihydro-5H-cyclopenta[b]pyridine-3-carbonitrile]

More lines, now with the values behind:

SMILES	IC50 [1] [nM]	IC50 [2] [nM]
C[C@H]1CCc2cc(C#N)ccc2[C@H]1Oc1ccc2[nH]nc(-c3cnco3)c2c1 (single isomer, unassigned) [175, enantiomer 1, cis-6-Methyl-5-[[3-(1,3-oxazol-5-yl)-1H-indazol-5-yl]oxy]-5,6,7,8-tetrahydronaphthalene-2-carbonitrile]	< 100	100 to 1000
C[C@H]1CCc2cc(C#N)ccc2[C@H]1Oc1ccc2[nH]nc(-c3cnco3)c2c1 (single isomer, unassigned) [175, enantiomer 2, cis-6-Methyl-5-[[3-(1,3-oxazol-5-yl)-1H-indazol-5-yl]oxy]-5,6,7,8-tetrahydronaphthalene-2-carbonitrile]	< 100	100 to 1000
C[C@@H]1CCc2cc(C#N)ccc2[C@H]1Oc1ccc2[nH]nc(-c3cnco3)c2c1 (single isomer, unassigned) [176, enantiomer 1, trans-6-Methyl-5-[[3-(1,3-oxazol-5-yl)-1H-indazol-5-yl]oxy]-5,6,7,8-tetrahydronaphthalene-2-carbonitrile]	< 100	100 to 1000
C[C@@H]1CCc2cc(C#N)ccc2[C@H]1Oc1ccc2[nH]nc(-c3cnco3)c2c1 (single isomer, unassigned) [176, enantiomer 2, trans-6-Methyl-5-[[3-(1,3-oxazol-5-yl)-1H-indazol-5-yl]oxy]-5,6,7,8-tetrahydronaphthalene-2-carbonitrile]	< 100	< 100
N#Cc1cc2c(nc1Cl)[C@@H](Oc1ccc3[nH]nc(C4CC4)c3c1)CCC2 (single isomer, unassigned) [181, enantiomer 1, 2-Chloro-8-[(3-cyclopropyl-1H-indazol-5-yl)oxy]-5,6,7,8-tetrahydroquinoline-3-carbonitrile]	< 100	< 100
N#Cc1ccc2c(c1)CC[C@@H]2Oc1ccc2[nH]nc(C3CC3)c2c1 (single isomer, unassigned) [Example 124, enantiomer 2, 1-((3-Cyclopropyl-1H-indazol-5-yl)oxy)-2,3-dihydro-1H-indene-5-carbonitrile]	100 to 1000	
N#Cc1cnc2c(c1)CCC[C@@H]2Oc1ccc2[nH]nc(C3CC3)c2c1 (single isomer, unassigned) [Example 136, enantiomer 2, 8-((3-Cyclopropyl-1H-indazol-5-yl)oxy)-5,6,7,8-tetrahydroquinoline-3-carbonitrile]	100 to 1000	
N#Cc1ccc2c(c1F)CC(F)(F)[C@@H]2Nc1ccc2[nH]nc(-c3cnco3)c2c1 (single isomer, unassigned) [Example 151, enantiomer 2, 2,2,4-Trifluoro-1-((3-(oxazol-5-yl)-1H-indazol-5-yl)amino)-2,3-dihydro-1H-indene-5-carbonitrile]		< 100
N#Cc1ccc2c(c1)CCCC2Nc1ccc2[nH]nc(C(F)(F)F)c2c1 (single isomer, unassigned) [Example 153, enantiomer 2, 5-((3-(Trifluoromethyl)-1H-indazol-5-yl)amino)-5,6,7,8-tetrahydronaphthalene-2-carbonitrile]	1000 to 10000	
Cc1ncc(-c2n[nH]c3ccc(N[C@@H]4c5ccc(C#N)cc5CC4(F)F)cc23)o1 (single isomer, unassigned) [Example 155, enantiomer 2, 2,2-Difluoro-1-((3-(2-methyloxazol-5-yl)-1H-indazol-5-yl)amino)-2,3-dihydro-1H-indene-5-carbonitrile]		< 100
Cc1ncc(-c2n[nH]c3ccc(O[C@H]4CCc5c4ccc(C#N)c5F)cc23)o1 (single isomer, unassigned) [Example 156, enantiomer 2, 4-Fluoro-1-((3-(2-methyloxazol-5-yl)-1H-indazol-5-yl)oxy)-2,3-dihydro-1H-indene-5-carbonitrile]		< 100
Cc1cc(-c2n[nH]c3ccc(N[C@H]4CCCc5cc(C#N)cnc54)cc23)sn1 (single isomer, unassigned) [Example 158, enantiomer 2, 8-((3-(3-Methylisothiazol-5-yl)-1H-indazol-5-yl)amino)-5,6,7,8-tetrahydroquinoline-3-carbonitrile]		< 100
Cc1ncc(-c2n[nH]c3ccc(N[C@H]4CCCc5cc(C#N)c(C)nc54)cc23)o1 (single isomer, unassigned) [Example 159, enantiomer 2, 2-Methyl-8-((3-(2-methyloxazol-5-yl)-1H-indazol-5-yl)amino)-5,6,7,8-tetrahydroquinoline-3-carbonitrile]		< 100
Cc1ncc(-c2n[nH]c3ccc(O[C@H]4CCc5cc(C#N)c(F)cc54)cc23)o1 (single isomer, unassigned) [Example 160, enantiomer 2, 6-Fluoro-1-((3-(2-methyloxazol-5-yl)-1H-indazol-5-yl)oxy)-2,3-dihydro-1H-indene-5-carbonitrile]		< 100
Cc1nc2c(c(C)c1C#N)CCC[C@@H]2Nc1ccc2[nH]nc(-c3cnco3)c2c1 (single isomer, unassigned) [Example 164, enantiomer 2, 2,4-Dimethyl-8-[[3-(1,3-oxazol-5-yl)-1H-indazol-5-yl]amino]-5,6,7,8-tetrahydroquinoline-3-carbonitrile]		< 100
COc1nc2c(c(C)c1C#N)CCC[C@@H]2Nc1ccc2[nH]nc(-c3cnco3)c2c1 (single isomer, unassigned) [Example 165, enantiomer 2, 2-Methoxy-4-methyl-8-[[3-(1,3-oxazol-5-yl)-1H-indazol-5-yl]amino]-5,6,7,8-tetrahydroquinoline-3-carbonitrile]		< 100
